Read-outs that look alike come from different tables or passages of the source.
How the values were obtained:
[1] = target: T1, human organic cation transporter 3 (hOCT3) (Homo sapiens, UniProt O75751); assay: Histamine incorporation experiment in HEK293 cells expressing hOCT3 (OCT3 inhibition activity); type: cell-based; conditions: Compound Concentration 10 μM
T1 construct: expressed in transfected cells; host or cells: HEK293
T1 sequence (O75751 1-556): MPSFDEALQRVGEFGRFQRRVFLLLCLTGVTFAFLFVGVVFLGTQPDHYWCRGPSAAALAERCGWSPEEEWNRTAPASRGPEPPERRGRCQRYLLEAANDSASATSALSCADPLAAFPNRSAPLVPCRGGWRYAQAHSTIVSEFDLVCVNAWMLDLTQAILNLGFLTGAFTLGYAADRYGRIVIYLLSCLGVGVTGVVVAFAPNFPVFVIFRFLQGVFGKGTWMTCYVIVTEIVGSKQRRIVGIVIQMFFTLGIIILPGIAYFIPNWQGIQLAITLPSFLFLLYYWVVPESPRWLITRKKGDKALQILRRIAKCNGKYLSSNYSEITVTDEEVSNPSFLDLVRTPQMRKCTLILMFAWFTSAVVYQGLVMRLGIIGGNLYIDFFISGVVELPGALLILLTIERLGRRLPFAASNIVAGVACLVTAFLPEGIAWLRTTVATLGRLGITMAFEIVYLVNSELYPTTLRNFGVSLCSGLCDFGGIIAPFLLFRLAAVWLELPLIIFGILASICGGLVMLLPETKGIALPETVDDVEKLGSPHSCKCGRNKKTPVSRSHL
Description: In order to measure an activity that inhibits OCT3 from incorporating a substrate (OCT3 inhibition activity) for each compound, histamine incorporation experiments as described below were performed.
Histamine incorporation experiments were performed in accordance with a method disclosed in Br J Pharmacol. 2002; 136(6): 829-836. In the experiments, HEK293 cells were used. The HEK293 cell is a human embryonal renal cell strain expressing human organic cation transporter 3 (hOCT3). The HEK 293 cells were inoculated onto 24-well plates at 1.5×10^5 cells/well, and were cultivated overnight in a carbon dioxide incubator. Test substances were dissolved in 100% DMSO solution and then dissolved in HBSS-HEPES solution (buffer solution prepared by dissolving 9.7 g Hank's Balanced Salt, 1.4% sodium bicarbonate 25 mL, and 1M HEPES 25 mL in 940 mL ultra pure water, and by adjusting to pH7.4 with 1M sodium hydroxide). After removing culture media for cell culture, pretreatment was performed for 5 minutes with 1 mL HBSS-HEPES solution. Then, the test substance and [3H]histamine (final concentration 100 nM) were added to the cells and reacted for 1 minute at room temperature. After the reaction was completed, the reaction was stopped by ice-cooled HBSS-HEPES solution, extracellular fluid was aspirated by an aspirator, and then the cells were washed twice with HBSS-HEPES. After washing, the cells were dissolved in 0.5M sodium hydroxide solution. The amount of histamine in the cells was found by measuring a radioactivity in a cell lysis solution by a liquid scintillation counter. Protein content in the cells was measured by Lowry method (J Biol Chem. 1951; 193(1): 265-75) by using the cell lysis solution, and translated into histamine incorporation amount per protein content for each experiment. A histamine incorporation rate (%) in the presence of 30 μM of the test substance was calculated by regarding a histamine incorporation amount in a case of no incorporation inhibitor as 100% (control) of histamine incorporation rate. A value (%) obtained by subtracting the histamine incorporation rate from 100(%) was calculated as an OCT3 inhibition rate (%).
Note that a histamine incorporation rate (%) in the presence of 10 μM of the test substance was calculated by regarding a histamine incorporation amount in a case of no incorporation inhibitor as 100% (control) of histamine incorporation rate. A value (%) obtained by subtracting the histamine incorporation rate from 100(%) was calculated as an OCT3 inhibition rate (%). […]

[2] = various diagnostic methods in clinical trials, WO 01/93863; cited from earlier work
[3] = target: T1, human organic cation transporter 3 (hOCT3); assay: Histamine incorporation experiment in HEK293 cells expressing hOCT3 (OCT3 inhibition activity); type: cell-based; conditions: control curve
OCT3 = target: T2, OCT3 (Homo sapiens, UniProt O75751); conditions: Sata et al., J Pharmacol Exp Ther. 2005, cited from earlier work
T2 sequence (O75751 1-556): T1 sequence (O75751 1-556)

Male ddY-strain mice = assay: Forced swimming test (akinesis time); type: in vivo, mouse; conditions: low dose administered independently: imipramine 4 mg/kg or OCT3 inhibitor 0.25 μl/hr
Description: In the forced swimming test, forced swimming is loaded on a mouse or rat as a test animal in a test tank from which the mouse or rat cannot escape. Then, after an escape behavior of the test animal, an akinesis (a state in which the test animal is floating with only its face out over the surface of the water and without moving legs) is confirmed. When the test animal is put in the test tank again after 24 or more hours later, the akinesis is expressed earlier than the first test. Duration of the akinesis within a predetermined time period (generally about 5 minutes) is reproduced relatively accurately.
Specifically, a test is performed as follows.
Male ddY-strain mice (Japan SLC, Inc.) having body weights of 28 to 33 g are used for an experiment. […] In the first forced swimming test, all of the laboratory mice are made to swim in a glass cylinder (diameter 15.5 cm, depth 17 cm, depth of water 12 cm, temperature of water 25° C.) for 300 seconds, the akinesis time are measured, and the mice are divided into experimental groups (OCT3 inhibitor administration group, positive control group, and negative control group) so that average values of these groups are almost identical. […] After one week from the injection, the mice are made to swim in the cylinder again for 300 seconds, and the akinesis time is measured for each of the mice. […]

remaining activity at 10 µM ([1]; HEK293, 1 min, no inhibitor = 100%, read-out: Histamine Incorporation Rate to Control (%))	inhibition at 10 µM ([1]; HEK293, 100% minus histamine incorporation rate)	IC80 ([3]; HEK293)	IC50 [3]	SMILES	antidepressant activity [2]	OCT3 inhibition activity (in words) (OCT3; listed as Famotidine)	OCT3 inhibition activity (in words) (OCT3; listed as famotidine)	average of the akinesis time (Male ddY-strain mice)
92.4%	7.6%	330 µM	67.6 µM	NC(N)=Nc1nc(CSCCC(N)=NS(N)(=O)=O)cs1 [FAMOTIDINE, famotidine, reference compound]	antidepressant activity is confirmed	strong OCT3 inhibition activity	strong OCT3 activity inhibition action	
				CN(C)CCCN1c2ccccc2CCc2ccccc21 [imipramine]				about 200 seconds

Reference: US9745274B2, “Compound, organic cation transporter 3 detection agent, and organic cation transporter 3 activity inhibitor” (SHIN NIPPON BIOMEDICAL LABORATORIES, LTD., priority 2013, dated 2017)
